The text below walks through data of US9550751B2, “Processes for the preparation of pesticidal compounds” (Dow AgroSciences LLC, priority 2013, dated 2017).

The subject of assay [1] is Sweetpotato Whitefly Crawler (Bemisia tabaci) (BEMITA). Put plainly: Bioassays on Sweetpotato Whitefly Crawler, foliar spray on cotton plants. The settings on record: read-out: BEMITA rating (% Control of Mortality). The assay is classed as in vivo. The method, then:
Cotton plants grown in 3-inch pots, with 1 small (3-5 cm) true leaf, were used at test substrate. The plants were placed in a room with whitely adults. Adults were allowed to deposit eggs for 2-3 days. After a 2-3 day egg-laying period, plants were taken from the adult whitefly room. Adults were blown off leaves using a hand-held Devilbliss sprayer (23 psi). Plants with egg infestation (100-300 eggs per plant) were placed in a holding room for 5-6 days at 82° F. and 50% RH for egg hatch and crawler stage to develop. Four cotton plants were used for each treatment. Compounds (2 mg) were dissolved in 1 mL of acetone solvent, forming stock solutions of 2000 ppm. The stock solutions were diluted 10× with 0.025% Tween 20 in water to obtain a test solution at 200 ppm. A hand-held Devilbliss sprayer was used for spraying a solution to both sides of cotton leaf until runoff. Reference plants (solvent check) were sprayed with the diluent only. Treated plants were held in a holding room for 8-9 days at approximately 82° F. and 50% RH prior to grading. Evaluation was conducted by counting the number of live nymphs per plant under a microscope.

Assay [2] concerns Green Peach Aphid (Myzus persicae) (MYZUPE). Description: Bioassays on Green Peach Aphid (GPA), foliar spray on cabbage seedlings. The assay is classed as in vivo. As to conditions: 72 h, read-out: MYZUPE rating (% Control of Mortality). How it is done: Several molecules disclosed herein were tested against GPA using procedures described below.
Cabbage seedling grown in 3-in pots, with 2-3 small (3-5 cm) true leaves, were used as test substrate. The seedlings were infested with […] (wingless adult and nymph stages) one day prior to chemical application. Four pots with individual seedlings were used for each treatment. Test compounds (2 mg) were dissolved in 2 mL of acetone/MeOH (1:1) solvent, forming stock solutions of 1000 ppm test compound. The stock solutions were diluted 5× with 0.025% Tween 20 in water to obtain the solution at 200 ppm test compound. A hand-held aspirator-type sprayer was used for spraying a solution to both sides of the cabbage leaves until runoff. Reference plants (solvent check) were sprayed with the diluent only containing 20% by volume acetone/MeOH (1:1) solvent. Treated plants were held in a holding room for three days at approximately 25° C. and ambient relative humidity (RH) prior to grading. Evaluation was conducted by counting the number of live aphids per plant under a microscope. Percent Control was measured by using Abbott's correction formula (W. S. Abbott, “A Method of Computing the Effectiveness of an Insecticide” J. Econ. Entomol 18 (1925), pp. 265-267) as follows. Corrected % Control=100*(X−Y)/X • where • X=No. of live aphids on solvent check plants and • Y=No. of live aphids on treated plants
The results are indicated in the table entitled “Table 1: GPA (MYZUPE) and sweetpotato whitefly-crawler (BEMITA) Rating Table”.

Structures can show the parent of a compound that is named as a salt. Where two headings read alike, the source gives them in different places.

Turning to `Nc1c[nH]nc1Cl` [Compound 1a, 3-chloro-1H-pyrazol-4-amine hydrochloride], the mortality at 200 ppm in assay [1] and in assay [2] was 0 to 80% each time.

With `CCN(C(=O)CCSCCC(F)(F)F)c1c[nH]nc1Cl` [Compound 4.7, N-(3-chloro-1H-pyrazol-4-yl)-N-ethyl-3-((3,3,3-trifluoropropyl)thio)propanamide], the mortality at 200 ppm in assay [2] (200 ppm spray on cabbage seedlings, graded after three days, Abbott's correction, live aphids) was less than 0%.

For the compound `CCNc1c[nH]nc1Cl` [Compound 7a, 3-Chloro-N-ethyl-1H-pyrazol-4-amine], the mortality at 200 ppm in assay [2] was less than 0%.

As usually defined, the mortality is the share of the test organisms that died.
